One compound from patent publication EP2276483B1, “SOLID FORMS COMPRISING (+)-2-[1-(3-ETHOXY-4-METHOXYPHENYL)-2-METHYLSULFONYLETHYL]-4-ACETYLAMINOISOINDOLINE-1,3-DIONE, COMPOSITIONS THEREOF, AND USES THEREOF” (CELGENE CORPORATION, priority 2008, dated 2009) can be followed below.

The subject of one test is CD11b. The test can be described thus: fMLF-induced CD11b expression on neutrophils. The conditions noted are these: Neutrophil; human neutrophils; 30 nM fMLF. It counts as cell-based. How it is done:
CD18/CD11b (Mac-1) expression on neutrophils was measured as previously described (Derian et al., 1995, J. Immunol., 154:308-3 17) with the following modifications. Neutrophils were isolated as described above, then resuspended in complete medium at 1x10^6 cells/ml, pretreated with compounds at 10, 1, 0.1, 0.01, and 0 µM in duplicate at a final DMSO concentration of 0.1% for 10 minutes at 37°C 5%CO2. Cells were then stimulated with 30 nM fMLF for 30 minutes and then chilled to 4°C. Cells were treated with rabbit IgG (Jackson ImmunoResearch Labs, West Grove, PA, USA) (10 µg/1x10^6 cells) to block Fc receptors, stained with CD18-FITC and CD11b-PE (Becton Dickinson), and analyzed by flow cytometry on a FACSCalibur. CD18/CD11b expression (mean fluorescence) in the absence of stimulation was subtracted from all samples to obtain inhibition curves and calculate IC50 values.

The subject of another test is cAMP. The test can be described thus: PGE2-induced cAMP elevation in human neutrophils. It counts as cell-based. The conditions noted are these: Neutrophil. How it is done:
Prostaglandin E2 (PGE2) binds to prostanoid receptors on monocytes, T cells and other leukocytes and consequently elevates intracellular cAMP levels, resulting in inhibition of cellular responses. The combination of PGE2 and a PDE4 inhibitor synergistically elevates cAMP levels in these cell types, and the elevation of cAMP in PBMC caused by PDE4 inhibitors in the presence of PGE2 is proportional to the inhibitory activity of that PDE4 inhibitor. Intracellular cAMP was measured in human PBMC as follows. PBMC were isolated as described above and plated in 96-well plates at 1 x 10^6 cells per well in RPMI-1640. The cells were pre-treated with compounds at 100, 10, 1, 0.1, 0.01, and 0 µM in a final concentration of 2% DMSO in duplicate at 37°C in a humidified incubator at 5% CO2 for one hour. The cells were then stimulated with PGE2 (10µM) (Sigma) for 1h. The cells were lysed with HCl, 0.1 N final concentration to inhibit phosphodiesterase activity and the plates were frozen at -20°C. The cAMP produced was measured using cAMP (low pH) Immunoassay kit (R&D Systems).
Elevation of cAMP in human neutrophils was measured as follows. PBMC were removed from source leukocytes (Sera-Tec Biologicals) by centrifugation on Ficoll-Paque Plus (Amersham Pharmacia). […]

In a further test the target is human PDE2 (Homo sapiens, UniProt O00408). The test can be described thus: PDE2 enzyme assay. The test is classed as biochemical.
human PDE2, sequence (O00408 whole entry): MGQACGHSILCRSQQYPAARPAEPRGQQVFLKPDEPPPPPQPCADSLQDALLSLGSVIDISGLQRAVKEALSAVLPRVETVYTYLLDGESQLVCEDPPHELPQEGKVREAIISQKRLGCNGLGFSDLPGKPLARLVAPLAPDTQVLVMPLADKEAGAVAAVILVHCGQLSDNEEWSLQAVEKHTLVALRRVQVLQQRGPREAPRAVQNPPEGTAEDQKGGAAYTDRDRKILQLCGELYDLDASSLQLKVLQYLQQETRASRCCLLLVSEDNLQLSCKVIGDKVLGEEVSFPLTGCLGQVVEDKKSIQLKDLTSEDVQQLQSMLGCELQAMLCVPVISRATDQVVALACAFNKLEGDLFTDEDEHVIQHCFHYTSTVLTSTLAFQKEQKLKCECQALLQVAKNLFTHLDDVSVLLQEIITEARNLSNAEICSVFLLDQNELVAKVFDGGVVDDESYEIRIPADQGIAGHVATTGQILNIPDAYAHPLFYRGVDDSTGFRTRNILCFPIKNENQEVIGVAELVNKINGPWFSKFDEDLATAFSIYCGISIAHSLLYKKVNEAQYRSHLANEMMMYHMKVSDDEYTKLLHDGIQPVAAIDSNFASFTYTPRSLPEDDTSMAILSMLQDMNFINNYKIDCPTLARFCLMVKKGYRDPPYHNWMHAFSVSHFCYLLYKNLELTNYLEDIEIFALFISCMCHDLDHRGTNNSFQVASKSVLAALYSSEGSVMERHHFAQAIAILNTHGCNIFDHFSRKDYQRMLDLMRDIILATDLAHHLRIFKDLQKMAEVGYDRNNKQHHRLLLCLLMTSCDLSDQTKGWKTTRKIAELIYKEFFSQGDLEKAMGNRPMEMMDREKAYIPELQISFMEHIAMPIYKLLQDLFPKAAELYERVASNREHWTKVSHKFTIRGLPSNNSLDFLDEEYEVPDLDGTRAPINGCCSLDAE
The next test deals with PDE4 (from U937 cells). The test can be described thus: PDE4 (U937 cell-derived) enzyme assay. It counts as biochemical, human. The conditions noted are these: 1 µM cAMP. The method, then:
PDE4 enzyme was purified from U937 human monocytic cells by gel filtration chromatography as previously described (Muller et al., 1998, Bioorg. & Med. Chem. Lett. 8:2669-2674). Phosphodiesterase reactions were carried out in 50 mM Tris HCl pH 7.5, 5 mM MgCl2, 1 µM cAMP, 10 nM [^3H]-cAMP for 30 min at 30°C, terminated by boiling, treated with 1 mg/ml snake venom, and separated using AG-1XS ion exchange resin (BioRad) as described (Muller et al., 1998, Bioorg. & Med. Chem. Lett. 8:2669-2674). Reactions consumed less than 15% of available substrate. Table 1. PDE Specificity

Consider `CCOc1cc(C(CS(C)(=O)=O)N2C(=O)c3cccc(NC(C)=O)c3C2=O)ccc1OC` (single isomer, unassigned; (+)) [Compound A, (+)-2-[1-(3-ethoxy-4-methoxyphenyl)-2-methylsulfonylethyl]-4-acetylaminoisoindoline-1,3-dione], for which the half-inhibitory concentration (IC50) (as a rule, the midpoint of a concentration-inhibition curve) stood at 74 nM in the test on CD11b and 73.5 nM in the test with PDE4 (from U937 cells). The EC50 (commonly the concentration at which the effect is half-maximal) in the test on cAMP amounted to 4570 nM. For the same compound, the “PDE Specificity Ratio PDE4/PDE2” value at human PDE2 (from above data) is given as more than 10000 fold. For the same compound, on human PDE2 (read-out: PDE2(% inhib at 10 µM)), the inhibition at 10 µM is 6%.
